Data on six compounds can be found in patent US6331555A, “Treatment of platelet derived growth factor related disorders such as cancers” (priority 1999, dated 2001).

Data set [1] concerns PDGFR. Briefly: Receptor tyrosine kinase inhibition, PDGFR. The format is cell-based. As to conditions: W = done in Western assay; read-out: PDGFR IC50 (W). In a few lines: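 Serum-starved cells treated with test compound for 2 hr at 37° C, then receptor phosphotyrosine measured by ELISA with anti-phosphotyrosine antibody and goat anti-rabbit IgG. Western blots used 7 min ligand stimulation at room temperature, vanadate-containing lysis and anti-phosphotyrosine immunodetection with ECL.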

Data set [2] relates to U1242 cells. Briefly: Cytotoxicity in U1242 cells, LDH. As to conditions: Homo sapiens, read-out: CYTOXICITY LDH U1242 LD50; heading: CYTOXICITY LDH U1242 LD50. It counts as cell-based. As for the experimental part: (§1) The cytotoxicity of each drug was also determined. The cells were plated as described above. Following incubation with drug, cell survival was measured by an MTT assay as described by Mossman J. Immunol. Methods 65:55-63 (1983), or by measuring the amount of LDH released (Korzeniewski and Callewaert, J. Immunol. Methods 64:313 (1983); Decker and Lohmann-Matthes, J. Immunol. Methods 115:61 (1988) .

For data set [3], the target named is PDGFR (Homo sapiens, UniProt P09619). Briefly: PDGF-stimulated receptor phosphorylation in U1242 cells, ELISA. The arrangement: U1242 (PDGF-β receptor); host or cells: U1242 MG glioma cells. It counts as cell-based. The note with it: 100 ng/ml PDGF-BB; read-out: ELISA P-TYR U1242 IC50. In a few lines: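 U1242 MG cells in 0.5% serum were pretreated with compound for 2 h at 37° C, then stimulated 5–10 min with PDGF-BB (100 ng/ml). Lysates captured on anti-PDGF receptor-coated plates; receptor phosphotyrosine detected by anti-phosphotyrosine ELISA with POD/ABTS read-out at 410 nm.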
For orientation: ELISA stands for enzyme-linked immunosorbent assay.

Another data set concerns PDGF receptor. The note with it: cited from earlier work.
For data set [4], the system named is Platelet-derived growth factor-dependent tyrosine phosphorylation. As to conditions: intact cells; cited from earlier work.
The subject of another data set is A431 cells. The note with it: cited from earlier work.
For the next data set, the target named is T1, PDGF-R (U1242) (Homo sapiens, UniProt P09619).
T1 construct: U1242 (PDGF-β receptor); host or cells: U1242 MG glioma cells
Briefly: U1242 kinase (PDGF-R activity). It counts as cell-based. In a few lines: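 For ELISA, cells were held overnight in 0.5% serum, then treated with compound for 2 h at 37 °C in serum-free medium. Lysate phosphotyrosine was detected with polyclonal anti-phosphotyrosine antibody. In western blots, cells were stimulated with ligand for 7 min at room temperature and probed with anti-phosphotyrosine (1:3000).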

The next data set relates to C6 cells. Briefly: C6 SRB growth assay. As to conditions: Rattus norvegicus, C6; read-out: C6 SRB IC50. The format is cell-based, rat. (The SRB assay estimates cell density from bound dye.)
The next data set in a line: LD10. As to conditions: in vivo.
In another data set the test system is C6 glioma cells. Briefly: C6 glioma SC xenograft in mice. The format is in vivo. Here is the method:
(§2) Cell lines were grown in appropriate medium (see Appendix 1). Cells were harvested at or near confluency with 0.05% Trypsin-EDTA and pelleted at 450×g for 10 min. Pellets were resuspended in sterile PBS or media (without FBS) to a particular concentration and the cells were implanted into the hindflank of mice. Tumor growth was measured over 3 to 6 weeks using venier calipers. Tumor volumes were calculated as a product of length×width×height unless otherwise indicated. P values were calculated using the Students' t-test.
(§3) C6 and SKOV-3(T) cells were grown in culture, as described in "cell growth" above, and implanted into the hind flank of a female Balb/c nu/nu mouse at 3×10^6 cells (for C6 experiments), or 1×10^7 cells (for SKOV-3 experiments) in […] of PBS on Day 0. U87MG, U118MG or U373MG human glioblastoma cells (obtained from the ATCC), or A4312 were also implanted into athymic mice. […] Tumors were measured using venier calipers and tumor volume was calculated as a product of tumor length, width, and height.

A short description of data set [5]: C6 glioma SC xenograft in mice. The format is in vivo. As to conditions: rat, in vivo, ip. As for the experimental part:
as §2, §3

The subject of the next data set is PDGF α-receptor. As to conditions: high concentrations; cited from earlier work.
In a further data set the test system is PDGF β-receptor. The note with it: cited from earlier work.
Data set [6] relates to U1242 cells. Briefly: Cytotoxicity in U1242 cells, MTT. It counts as cell-based, human. The note with it: Homo sapiens, read-out: CYTOXICITY MTT U1242 LD50; heading: CYTOXICITY MTT U1242 LD50. As for the experimental part: as §1
Where [7] appears, read: W = done in Western assay, read-out: U1242 KINASE IC50 (W).

The IC50 is the concentration that gives 50% inhibition. Usually mortality stands for the percentage killed. Higher therefore signals fewer survivors.

“And” between values parts separate entries of the source, which are not always exact repeats. Equal values may be shown once. Read-outs that look alike come from different tables or passages of the source.

Sequence of PDGFR (Homo sapiens, UniProt P09619) (P09619 33-1106): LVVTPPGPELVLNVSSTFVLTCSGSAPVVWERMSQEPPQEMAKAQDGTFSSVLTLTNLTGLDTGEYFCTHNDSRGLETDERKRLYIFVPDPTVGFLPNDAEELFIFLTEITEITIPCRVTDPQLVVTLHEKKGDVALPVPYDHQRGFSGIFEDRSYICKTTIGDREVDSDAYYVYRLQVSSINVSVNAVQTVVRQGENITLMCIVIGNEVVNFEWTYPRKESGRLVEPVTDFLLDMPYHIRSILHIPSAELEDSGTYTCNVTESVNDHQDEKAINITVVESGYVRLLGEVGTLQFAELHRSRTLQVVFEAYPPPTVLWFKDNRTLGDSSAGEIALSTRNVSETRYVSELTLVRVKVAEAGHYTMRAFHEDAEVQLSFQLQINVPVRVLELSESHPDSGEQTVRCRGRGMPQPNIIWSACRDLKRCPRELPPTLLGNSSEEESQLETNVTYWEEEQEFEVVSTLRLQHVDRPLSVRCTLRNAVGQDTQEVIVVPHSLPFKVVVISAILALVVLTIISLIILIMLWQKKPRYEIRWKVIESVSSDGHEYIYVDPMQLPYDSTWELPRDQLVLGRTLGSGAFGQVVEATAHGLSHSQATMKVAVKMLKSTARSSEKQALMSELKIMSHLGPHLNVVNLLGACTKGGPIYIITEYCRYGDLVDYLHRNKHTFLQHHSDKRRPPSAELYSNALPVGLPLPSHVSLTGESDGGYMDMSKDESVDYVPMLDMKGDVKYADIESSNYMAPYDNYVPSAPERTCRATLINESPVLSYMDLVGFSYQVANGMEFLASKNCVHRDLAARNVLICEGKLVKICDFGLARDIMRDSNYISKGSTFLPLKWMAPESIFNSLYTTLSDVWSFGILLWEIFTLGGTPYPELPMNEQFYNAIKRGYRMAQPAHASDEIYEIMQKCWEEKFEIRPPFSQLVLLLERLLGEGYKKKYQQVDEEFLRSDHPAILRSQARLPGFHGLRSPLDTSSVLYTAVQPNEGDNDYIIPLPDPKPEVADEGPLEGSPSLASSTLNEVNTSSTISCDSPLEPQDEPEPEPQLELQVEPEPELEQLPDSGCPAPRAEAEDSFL
T1 sequence (P09619 33-1106): as above

For `COc1cc2nc(Cl)c(-c3ccccc3)cc2c(OC)c1OC` [Compound G11], the IC50 in the data set with PDGFR [1] is 20 µM; on PDGFR [3], 15 µM. In addition, in the data set with U1242 cells [2], the CC50 amounted to 90 µM.
As for `Cc1ccc(C(=O)Nc2ccc(S(=O)(=O)O)c3cc(S(=O)(=O)O)cc(S(=O)(=O)O)c23)cc1NC(=O)c1cccc(NC(=O)Nc2cccc(C(=O)Nc3cc(C(=O)Nc4ccc(S(=O)(=O)O)c5cc(S(=O)(=O)O)cc(S(=O)(=O)O)c45)ccc3C)c2)c1` [suramin], the receptor binding entry with PDGF receptor is on record as “interfere with receptor binding”.
Regarding `CC(O)=C(C#N)C(=O)Nc1ccc(C(F)(F)F)cc1` [A77 1726], the “Platelet-derived growth factor-dependent tyrosine phosphorylation” value in data set [4] is recorded as “inhibited by A77 1726 in intact cells at concentrations similar to EGF-dependent phosphorylation”. Further, the “growth of A431 cells” value with A431 cells is reported as “inhibited growth of A431 cells”.
As for `O=C(c1ccccc1)c1ccc2ncc(-c3ccccc3)nc2c1` [Compound G21], the 50% inhibitory concentration (IC50) on PDGF-R (U1242) (setting [7]) was 6 µM; at PDGF-R (U1242) (read-out: U1242 KINASE IC50), more than 50 µM; in the data set on C6 cells it was more than 12 µM; at PDGFR [3], 6 µM. The CC50 in the data set on U1242 cells [2] was more than 100 µM. For the same compound, the LD10 in “LD10” is more than 200 mg/kg. Further, the “C6 in vivo EFFICACY” value in the data set with C6 glioma cells (at 40 mg/kg) was “no effect”. In data set [5] (40 mg/kg), this compound had a mortality of 0%.
Regarding neomycin, the “binding of PDGF-BB to the α-receptor” value in the data set with PDGF α-receptor is “inhibited the binding of PDGF-BB to the α-receptor”. Besides, the “binding of PDGF-BB to the β-receptor” value in the data set with PDGF β-receptor is on record as “did not inhibit binding to the β-receptor”.
With `O=C(NN=Cc1ccc(O)c(O)c1)C(=O)Nc1cccc([N+](=O)[O-])c1` [Compound E15], the concentration for half-maximal inhibition (IC50) was 5 µM and 10 µM on PDGF-R (U1242) (setting [7]); more than 50 µM at PDGF-R (U1242) (read-out: U1242 KINASE IC50); 4.4 µM in the data set with C6 cells; 5 µM on PDGFR [3]. The compound also showed an LD10 in “LD10” of more than 400 mg/kg. Besides, the inhibition in vivo at 15 mg/kg with C6 glioma cells (Rattus norvegicus, C6 glioma, sc, at 15 mg/kg, read-out: C6 in vivo EFFICACY) worked out at 66%. Further, the inhibition in vivo at 50 mg/kg in the data set with C6 glioma cells (Rattus norvegicus, C6 glioma, sc, at 50 mg/kg, read-out: C6 in vivo EFFICACY) came to 58%. In addition, the inhibition in vivo at 100 mg/kg in the data set on C6 glioma cells (Rattus norvegicus, C6 glioma, sc, at 100 mg/kg, read-out: C6 in vivo EFFICACY) was 0%. Also, in [5] (15 mg/kg), the mortality at 336 h came to 0%. The same compound displayed a mortality at 360 h in [5] (50 mg/kg) of 12.5%. In [5] (100 mg/kg), the mortality at 192 h came out at 100%. Further, the CC50 with U1242 cells [6] was more than 100 µM.
